# Tests used:
# [1] = test system: motile sperm (normal semen sample); assay: modified Sander-Cramer Assay, spermicidal activity; type: cell-based; conditions: control; 30 seconds at room temperature
# Procedure: This assay determines the sperm-immobilising minimum effective concentration (MEC).
# Serial two-fold dilutions were prepared from stock solutions at 2% (for water soluble compounds) or 4% (for water insoluble compounds). 250 μL of each dilution were mixed with […] of a normal semen sample containing 60×10^6 motile sperm/mL. Normality of the semen samples was assessed with the aid of a CASA system (Hamilton-Thorne, IVOS; Beverly, Mass.). Semen and compound aliquots were microscopically examined while incubating at room temperature for 30 seconds. If any motile spermatozoon were found, either in the initial examination or after one hour incubation in medium, that dilution was labelled as “failed”. The MEC for a given compound was calculated using the highest dilution that induces total sperm immobilization. 6 to 10 semen samples were used to obtain more reliable results. N9 (MEC=˜0.1-0.2 mg/mL) and solvents were run as control.
# [2] = test system: herpes simplex virus type 2 (HSV-2); conditions: previous studies, cited from earlier work
substance,measurement,setting,value
Nonoxynol-9 [N9],sperm-immobilising minimum effective concentration (MEC),[1],0.1 to 0.2 mg/mL
same,animals infected with HSV-2,[2],29 out of 42
same,relative susceptibility to HSV-2 infection vs control animals,[2]; effective ID of low-dose inoculum in test mice / ID in controls,29.7 times
